The subject of one experiment is Sprague Dawley rats. The experiment in a line: IV infused EP3 antagonists on circulating insulin and glucose in the sulprostone infusion IVGTT model. The experiment is classed as in vivo, rat. The following applies: SD rats, IV bolus plus infusion at 7×Ki and 10×Ki (targeted). From the text: Biological Example 3—IV Infused EP3 Antagonists on Circulating Insulin and Glucose in the Sulprostone Infusion IVGTT Model
Jugular vein and carotid artery cannulated male Sprague Dawley rats (˜250 g, available from Charles River) were housed one rat per suspended cage in a temperature-controlled room with 12-hour light/dark cycle. The rats were allowed ad libitum access to water and maintained on a regular diet. Animals were acclimated for minimum 5 days prior to the start of the experiment. Experimental procedures were carried out in accordance with institutional standards for animal care and were approved by the institute's animal care and use committee.
A blood sample for insulin and blood chemistry was collected at 20 min (t=−20) prior to the start of dosing with sulprostone and/or test compound (EP3 antagonist). […]
Blood samples from all animals were collected into Heparin treated tubes. Background was measured via a glucometer at the 0 and 2 min time points to ensure that the animal received the glucose bolus. Plasma insulin was measured via a Meso Scale Discovery metabolic assay (available from Meso Scale). Plasma glucose, free fatty acid (FFA), triglycerides, cholesterol and ketones were measured on an OLYMPUS AU400E chemistry analyzer. Observations on animal health were recorded throughout the procedure. […]

The target in experiment [1] is T1, EP3 receptor (Homo sapiens, UniProt P43115).
T1 construct: purchased Millipore HTS092M
T1 sequence (P43115 1-390): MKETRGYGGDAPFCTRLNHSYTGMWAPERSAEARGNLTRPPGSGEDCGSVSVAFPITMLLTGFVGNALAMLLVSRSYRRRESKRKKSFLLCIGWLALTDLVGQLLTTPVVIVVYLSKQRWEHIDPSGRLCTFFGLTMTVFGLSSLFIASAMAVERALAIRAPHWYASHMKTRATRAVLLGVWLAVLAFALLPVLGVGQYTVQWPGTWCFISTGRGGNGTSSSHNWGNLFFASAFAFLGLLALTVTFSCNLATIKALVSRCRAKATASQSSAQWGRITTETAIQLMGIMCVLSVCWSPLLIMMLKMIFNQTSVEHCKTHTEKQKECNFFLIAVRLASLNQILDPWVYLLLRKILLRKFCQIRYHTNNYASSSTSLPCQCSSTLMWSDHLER
The experiment in a line: [3H]-PGE2 binding assay (EP3 competition binding). Conditions: read-out: [3H]-PGE2 Binding Ki. Put shortly: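 Scintillation-bead competition binding with EP3 membranes (2 μg/well), 2 nM [3H]-PGE2, 0.1% DMSO, in 50 mM Tris, 10 mM MgCl2, 1 mM EDTA, pH 7.4.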

Experiment [2] concerns the target T1, EP3 receptor. The experiment in a line: CHO cell cAMP assay (forskolin and sulprostone stimulated, HTRF). The experiment is classed as cell-based. The following applies: CHO cells; sulprostone 700 nM (EC80) and FSK 2 μM (EC70), 37° C. for 30 minutes; read-out: CHO_cAMP IC50. For orientation: Cyclic AMP is a second messenger, typically raised through Gs and lowered through Gi signalling.

For `CC(C)C(/C=C1\OC(=O)NC1=O)c1ccc(-c2ccc3cccc(F)c3c2)[nH]c1=O` (racemic) [Compound #62, (Z)-5-(2-(6-(8-fluoronaphthalen-2-yl)-2-oxo-1,2-dihydropyridin-3-yl)-3-methylbutylidene)oxazolidine-2,4-dione], in the experiment with Sprague Dawley rats, the “reversal of suppression of glucose stimulate insulin secretion (GSIS) by sulprostone” value was “reverse suppression of glucose stimulate insulin secretion (GSIS) by sulprostone”. For the compound `NC(=O)C(C1=CCCCC1)c1ccc(-c2ccc3ccccc3c2)[nH]c1=O` (stereo not drawn) [compound 226, 2-(cyclohex-1-en-1-yl)-2-(6-(naphthalen-2-yl)-2-oxo-1,2-dihydropyridin-3-yl)acetamide], the Ki at EP3 receptor [1] is 186 nM. For the same compound, the IC50 at EP3 receptor [2] was 4960 nM.

Turning to `CC1=NC(C)(c2ccc(-c3ccc4ccccc4c3)[nH]c2=O)C(=O)N1` (stereo not drawn) [compound 223, 3-(2,4-dimethyl-5-oxo-4,5-dihydro-1H-imidazol-4-yl)-6-(naphthalen-2-yl)-1,2-dihydropyridin-2-one], the Ki at EP3 receptor [1] is 496 nM. Besides, on EP3 receptor [2], the IC50 was 3580 nM. As for `CC1(c2ccc(-c3ccc4ccccc4c3)[nH]c2=O)CN/C(=N\C#N)N1` (stereo not drawn) [compound 283], at EP3 receptor [1], the Ki stood at 49 nM. The IC50 on EP3 receptor [2] came out at 180 nM. The matching figures for `CC(C)C(c1ccc(-c2ccc3cccc(F)c3c2)[nH]c1=O)n1ccnc1N` (stereo not drawn) [Compound #162, 3-(1-(2-amino-1H-imidazol-1-yl)-2-methylpropyl)-6-(8-fluoronaphthalen-2-yl)pyridin-2(1H)-one]: 13 nM and 117 nM. `CC(C)C(c1nnn[nH]1)c1ccc(-c2ccc3ccccc3c2)[nH]c1=O` (stereo not drawn) [compound 61, 3-(2-Methyl-1-(1H-tetrazol-5-yl)propyl)-6-(naphthalen-2-yl)pyridin-2(1H)-one]: on EP3 receptor [1], the Ki turned out to be 43 nM. On EP3 receptor [2], the IC50 stood at 376 nM. For `O=C1NC(=O)C(CC2(c3ccc(-c4ccc5cccc(F)c5c4)[nH]c3=O)CCCC2)O1` (stereo not drawn) [compound 7, 5-((1-(6-(8-fluoronaphthalen-2-yl)-2-oxo-1,2-dihydropyridin-3-yl)cyclopentyl)methyl) oxazolidine-2,4-dione], in that order: 39 nM and 149 nM.

As for `CCn1ncc2c(F)cc(-c3ccc(C(c4noc(=O)[nH]4)C(C)C)c(=O)[nH]3)cc21` (stereo not drawn) [Compound #277, 3-(1-(6-(1-ethyl-4-fluoro-1H-indazol-6-yl)-2-oxo-1,2-dihydropyridin-3-yl)-2-methylpropyl)-1,2,4-oxadiazol-5(4H)-one], the Ki on EP3 receptor [1] was 107 nM. In addition, the IC50 on EP3 receptor [2] is 548 nM. For `CC1(c2ccc(-c3ccc4ccccc4c3)[nH]c2=O)CNC(NS(C)(=O)=O)=N1` (stereo not drawn) [compound 290, N-[4-methyl-4-[6-(naphthalen-2-yl)-2-oxo-1,2-dihydropyridin-3-yl]-4,5-dihydro-1H-imidazol-2-yl]methanesulfonamide], the Ki at EP3 receptor [1] was determined as 116 nM. For the same compound, the IC50 on EP3 receptor [2] came out at 1910 nM. For `CC(C)C(CC(=O)NS(=O)(=O)c1cc(Cl)c(Cl)s1)c1ccc(-c2ccc3cccc(F)c3c2)[nH]c1=O` (stereo not drawn) [compound 256, N-(4,5-dichlorothiophen-2-ylsulfonyl)-3-(6-(8-fluoronaphthalen-2-yl)-2-oxo-1,2-dihydropyridin-3-yl)-4-methylpentanamide], in that order: 164 nM and 579 nM.

Consider `CCn1ncc2c(F)cc(-c3ccc(C4CCN(S(=O)(=O)C(C)C)C4)c(=O)[nH]3)cc21` (stereo not drawn) [compound 213, 6-(1-ethyl-4-fluoro-1H-indazol-6-yl)-3-(1-(isopropylsulfonyl)pyrrolidin-3-yl)pyridin-2(1H)-one], for which the Ki on EP3 receptor [1] came to 7 nM. Also, the IC50 at EP3 receptor [2] turned out to be 281 nM. Consider `CC(C)C(CC(=O)Nc1nccs1)c1ccc(-c2ccc3cccc(F)c3c2)[nH]c1=O` (stereo not drawn) [compound 254, 3-(6-(8-fluoronaphthalen-2-yl)-2-oxo-1,2-dihydropyridin-3-yl)-4-methyl-N-(thiazol-2-yl)pentanamide], for which the Ki on EP3 receptor [1] turned out to be 344 nM. In addition, the IC50 at EP3 receptor [2] came to 2740 nM. Take `CC(C)C(C(=O)NC1CN(C)C1)c1ccc(-c2ccc3cccc(F)c3c2)[nH]c1=O` (stereo not drawn) [compound 182, 2-(6-(8-fluoronaphthalen-2-yl)-2-oxo-1,2-dihydropyridin-3-yl)-3-methyl-N-(1-methylazetidin-3-yl)butanamide]: at EP3 receptor [1], the Ki amounted to 41 nM. Besides, the half-maximal inhibitory concentration (IC50) at EP3 receptor [2] is 638 nM.

On to `CC(C)C(CC(=O)NCCO)c1ccc(-c2ccc3cccc(F)c3c2)[nH]c1=O` (stereo not drawn) [compound 258, 3-(6-(8-fluoronaphthalen-2-yl)-2-oxo-1,2-dihydropyridin-3-yl)-N-(2-hydroxyethyl)-4-methyl pentanamide], for which the Ki on EP3 receptor [1] came out at 8 nM. For the same compound, the IC50 on EP3 receptor [2] came out at 136 nM. On to `CONC1=NC(c2ccc(-c3ccc4cccc(F)c4c3)[nH]c2=O)(C(C)C)CN1` (stereo not drawn) [compound 292, (Z)-6-(8-fluoronaphthalen-2-yl)-3-(4-isopropyl-2-(methoxyimino)imidazolidin-4-yl)pyridin-2(1H)-one], for which, on EP3 receptor [1], the Ki is 2 nM. Also, the IC50 on EP3 receptor [2] turned out to be 6 nM. In the case of `CCn1cc2ccc(-c3ccc(C(CC4OC(=O)NC4=O)C(C)C)c(=O)[nH]3)cc2n1` (stereo not drawn) [compound 120, 5-(2-(6-(2-ethyl-2H-indazol-6-yl)-2-oxo-1,2-dihydropyridin-3-yl)-3-methylbutyl)oxazolidine-2,4-dione], the Ki on EP3 receptor [1] was over 10000 nM. The IC50 on EP3 receptor [2] was over 20000 nM. The matching figures for `CCn1cnc2ccc(-c3ccc(C(C=C4OC(=O)NC4=O)C(C)C)c(=O)[nH]3)c(F)c21` (stereo not drawn) [compound 91, 5-(2-(6-(3-ethyl-4-fluoro-3H-benzo[d]imidazol-5-yl)-2-oxo-1,2-dihydropyridin-3-yl)-3-methylbutylidene)oxazolidine-2,4-dione]: over 10000 nM and over 20000 nM. For `CCS(=O)(=O)N1CCC(c2ccc(-c3ccc4ccccc4c3)[nH]c2=O)CC1` [compound 190, 3-(1-(ethylsulfonyl)piperidin-4-yl)-6-(naphthalen-2-yl)pyridin-2(1H)-one], on EP3 receptor [1], the Ki stood at 32 nM. Besides, the IC50 at EP3 receptor [2] worked out at 614 nM.

As for `NC(=O)C1(c2ccc(-c3ccc4ccccc4c3)[nH]c2=O)CC=NN1` (stereo not drawn) [compound 247, 5-(6-(naphthalen-2-yl)-2-oxo-1,2-dihydropyridin-3-yl)-4,5-dihydro-1H-pyrazole-5-carboxamide], the Ki at EP3 receptor [1] came out at 771 nM. For the same compound, at EP3 receptor [2], the IC50 stood at 2400 nM. The matching figures for `CS(=O)(=O)N1CCC(c2ccc(-c3ccc4ccccc4c3)[nH]c2=O)CC1` [compound 186, 3-(1-(methylsulfonyl)piperidin-4-yl)-6-(naphthalen-2-yl)pyridin-2(1H)-one]: 40 nM and 2830 nM.

In general, Ki refers to a dissociation constant, usually derived from enzyme kinetics or from competition with a known ligand. As usually defined, the IC50 is the concentration that gives 50% inhibition.

Values taken from patent publication US10336701B2, “Pyridin-2-one derivatives of formula (II) useful as EP3 receptor antagonists” (Janssen Pharmaceutica NV, priority 2017, dated 2019).
